Experimental data from patent publication US6593329B1, “Method for the treatment or prevention of coronary graft vasospasm” (Orion Corporation, priority 1999, dated 2003).
“And” between values parts separate entries of the source, which are not always exact repeats. Identical values can stand only once.

System: human internal mammary artery (IMA) preparations
Assay: Prevention of noradrenaline-induced vasospasm in isolated human internal mammary artery rings (isolated ring technique)
Format: cell-based
Settings: for Prevention (%) of graft vasospasm (as % of maximal attainable spasm): IMA rings contracted with noradrenaline 1-10 μM, per patient and mean
Protocol: The effect of levosimendan to prevent vasospasm was investigated in human internal mammary artery (IMA) preparations from coronary by-pass surgery (8 patients) at three different levels of vascular tone using isolated ring technique. It is known that IMA may produce spasm during and after graft surgery especially at low perfusion pressure (at or lower than 50 mmHg).
Isometric stretch was applied perpendicular to the direction of blood flow for 45 min in organ bath containing oxygenated Krebs-Henseleit solution (37° C., pH 7.4). Magnitude of stretch (in mN) was converted into quasi-equivalent pressure values (23, 46 and 92 mmHg) according to the Laplace law. Isolated IMA rings were contracted with noradrenaline (1-10 μM), and at the steady state contraction, levosimendan (0.3 and 0.6 μM) was added cumulatively.

## CC1CC(=O)NN=C1c1ccc(NN=C(C#N)C#N)cc1 (single isomer, unassigned; (-)) [Levosimendan, (−)-[[4-(1,4,5,6-tetrahydro-4-methyl-6-oxo-3-pyridazinyl)phenyl]hydrazono]propanedinitrile]
23 mmHg transmural pressure, levosimendan 0.3 μM
  Prevention (%) of graft vasospasm (as % of maximal attainable spasm): 46.1% and 27.2% and 37.5% and 60.0% and 46.7% and 40.0%
23 mmHg transmural pressure, levosimendan 0.6 μM
  Prevention (%) of graft vasospasm (as % of maximal attainable spasm): 76.9% and 125.0% and 45.5% and 62.5% and 0% and 110.0% and 113.3% and 113.0%
46 mmHg transmural pressure, levosimendan 0.3 μM
  Prevention (%) of graft vasospasm (as % of maximal attainable spasm): 28.6% and 75.0% and 13.8% and 8.3% and 57.1% and 16.2% and 37.8% and 17.3%
46 mmHg transmural pressure, levosimendan 0.6 μM
  Prevention (%) of graft vasospasm (as % of maximal attainable spasm): 85.7% and 100.0% and 41.4% and 27.1% and 114.3% and 21.6% and 78.4% and 57.7%
92 mmHg transmural pressure, levosimendan 0.3 μM
  Prevention (%) of graft vasospasm (as % of maximal attainable spasm): 16.6% and 0% and 3.9% and 8.2% and 9.6%
92 mmHg transmural pressure, levosimendan 0.6 μM
  Prevention (%) of graft vasospasm (as % of maximal attainable spasm): 61.6% and 22.0% and 14.9% and 34.7% and 26.7%
Clinically relevant submicromolar concentrations, in particular at low perfusion pressure values
  Prevention of graft vasospasm (result in words): prevents graft vasospasm
